From PubChem BioAssay AID1918991 (Molecular Pharmacology Branch, DTP, NCI, 2023)
Where “and” joins values, the source holds several entries; their conditions need not be identical. Identical values can stand only once.

System: 186277-243-T-J2-PDC complex spheroid growth
Experiment: Anticancer human tumor 186277-243-T-J2-PDC patient-derived colon adenocarcinoma cell line growth inhibition [AhR]
Settings: for viability, T/C: stronger effect = lower value
Method in brief: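 Complex tumor spheroids co-cultured with HUVEC and human MSC stroma; AhR antagonists tested in combination with standard-of-care and investigational agents. Top concentration at or near clinical Cmax (else 10 microM), half-log dilutions; growth expressed as percent test/control.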

[1] = curve of first compound, second compound 0.1 µM
[2] = curve of first compound, second compound 0.316 µM
[3] = curve of first compound, second compound 1 µM
[4] = curve of first compound, second compound 3.16 µM
[5] = curve of first compound, second compound 10 µM
[6] = second compound 0.1 µM, first compound 0.0316 µM
[7] = second compound 0.1 µM, first compound 0.1 µM
[8] = second compound 0.1 µM, first compound 0.316 µM
[9] = second compound 0.1 µM, first compound 1 µM
[10] = second compound 0.1 µM, first compound 3.16 µM
[11] = second compound 0.1 µM, first compound 10 µM
[12] = second compound 0.316 µM, first compound 0.0316 µM
[13] = second compound 0.316 µM, first compound 0.1 µM
[14] = second compound 0.316 µM, first compound 0.316 µM
[15] = second compound 0.316 µM, first compound 1 µM
[16] = second compound 0.316 µM, first compound 3.16 µM
[17] = second compound 0.316 µM, first compound 10 µM
[18] = second compound 1 µM, first compound 0.0316 µM
[19] = second compound 1 µM, first compound 0.1 µM
[20] = second compound 1 µM, first compound 0.316 µM
[21] = second compound 1 µM, first compound 1 µM
[22] = second compound 1 µM, first compound 3.16 µM
[23] = second compound 1 µM, first compound 10 µM
[24] = second compound 3.16 µM, first compound 0.0316 µM
[25] = second compound 3.16 µM, first compound 0.1 µM
[26] = second compound 3.16 µM, first compound 0.316 µM
[27] = second compound 3.16 µM, first compound 1 µM
[28] = second compound 3.16 µM, first compound 3.16 µM
[29] = second compound 3.16 µM, first compound 10 µM
[30] = second compound 10 µM, first compound 0.0316 µM
[31] = second compound 10 µM, first compound 0.1 µM
[32] = second compound 10 µM, first compound 0.316 µM
[33] = second compound 10 µM, first compound 1 µM
[34] = second compound 10 µM, first compound 3.16 µM
[35] = second compound 10 µM, first compound 10 µM
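Also: spheroids exposed to compounds for seven days before the viability read.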
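For viability, T/C in this document: luminescent signal used as a stand-in for viable cell amount; 100% = DMSO vehicle control wells.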

Structure (SMILES): COc1cc(C2c3cc4c(cc3C(OC3OC5COC(C)OC5C(O)C3O)C3COC(=O)C23)OCO4)cc(OC)c1O (stereo not drawn) + CC(CO)NC(=O)c1cc(-c2ccc(Cl)cc2)nn(-c2cnn(C)c2)c1=O
- IC50 [1]: 279 nM
- IC50 [2]: 281 nM
- IC50 [3]: 260 nM
- IC50 [4]: 197 nM
- IC50 [5]: 81.6 nM
- viability, T/C [6]: 102%
- viability, T/C [7]: 83.9%
- viability, T/C [8]: 45.4%
- viability, T/C [9]: 20.3%
- viability, T/C [10]: 15.5%
- viability, T/C [11]: 8.93%
- viability, T/C [12]: 92.8%
- viability, T/C [13]: 90.6%
- viability, T/C [14]: 45%
- viability, T/C [15]: 17.8%
- viability, T/C [16]: 17.6%
- viability, T/C [17]: 8.41%
- viability, T/C [18]: 89.2%
- viability, T/C [19]: 80.2%
- viability, T/C [20]: 42.6%
- viability, T/C [21]: 20.7%
- viability, T/C [22]: 16.4%
- viability, T/C [23]: 8.47%
- viability, T/C [24]: 84.5%
- viability, T/C [25]: 71.6%
- viability, T/C [26]: 33.7%
- viability, T/C [27]: 20.2%
- viability, T/C [28]: 14.5%
- viability, T/C [29]: 7.04%
- viability, T/C [30]: 68.3%
- viability, T/C [31]: 47.4%
- viability, T/C [32]: 25.2%
- viability, T/C [33]: 19.2%
- viability, T/C [34]: 10.4%
- viability, T/C [35]: 6.47%

Structure (SMILES): COc1ccc([C@@H](O)c2cc(-c3ncnc4cc(N5CCOCC5)ccc34)c(F)cc2Cl)nn1
- viability, T/C (compound 0.0316 µM): 103% and 94.6% and 86.8%
- viability, T/C (compound 0.1 µM): 101% and 91.5% and 90.4%
- viability, T/C (compound 0.316 µM): 115% and 102% and 95%
- viability, T/C (compound 1 µM): 107% and 95.6% and 69.3%
- viability, T/C (compound 3.16 µM): 108% and 87.9% and 46.4%
- viability, T/C (compound 10 µM): 45.4% and 44.9% and 16.3%
- IC50 (curve of compound): 9190 nM and 8760 nM and 2560 nM

Structure (SMILES): CCc1c2c(nc3ccc(O)cc13)-c1cc3c(c(=O)n1C2)COC(=O)[C@]3(O)CC + Cc1ccccc1N=Nc1ccc(NC(=O)c2ccnn2C)c(C)c1
- IC50 [1]: 74 nM
- IC50 [2]: 66.3 nM
- IC50 [3]: 66.6 nM
- IC50 [4]: 60.6 nM
- IC50 [5]: 61.4 nM
- viability, T/C (second compound 0.1 µM, first compound 0.000949 µM): 119%
- viability, T/C (second compound 0.1 µM, first compound 0.003 µM): 143%
- viability, T/C (second compound 0.1 µM, first compound 0.00949 µM): 114%
- viability, T/C (second compound 0.1 µM, first compound 0.03 µM): 81.7%
- viability, T/C (second compound 0.1 µM, first compound 0.0949 µM): 42.6%
- viability, T/C (second compound 0.1 µM, first compound 0.3 µM): 25.4%
- viability, T/C (second compound 0.316 µM, first compound 0.000949 µM): 114%
- viability, T/C (second compound 0.316 µM, first compound 0.003 µM): 145%
- viability, T/C (second compound 0.316 µM, first compound 0.00949 µM): 123%
- viability, T/C (second compound 0.316 µM, first compound 0.03 µM): 78%
- viability, T/C (second compound 0.316 µM, first compound 0.0949 µM): 40.5%
- viability, T/C (second compound 0.316 µM, first compound 0.3 µM): 27%
- viability, T/C (second compound 1 µM, first compound 0.000949 µM): 128%
- viability, T/C (second compound 1 µM, first compound 0.003 µM): 157%
- viability, T/C (second compound 1 µM, first compound 0.00949 µM): 123%
- viability, T/C (second compound 1 µM, first compound 0.03 µM): 80.5%
- viability, T/C (second compound 1 µM, first compound 0.0949 µM): 37.9%
- viability, T/C (second compound 1 µM, first compound 0.3 µM): 24.2%
- viability, T/C (second compound 3.16 µM, first compound 0.000949 µM): 125%
- viability, T/C (second compound 3.16 µM, first compound 0.003 µM): 138%
- viability, T/C (second compound 3.16 µM, first compound 0.00949 µM): 119%
- viability, T/C (second compound 3.16 µM, first compound 0.03 µM): 77%
- viability, T/C (second compound 3.16 µM, first compound 0.0949 µM): 33.6%
- viability, T/C (second compound 3.16 µM, first compound 0.3 µM): 21.1%
- viability, T/C (second compound 10 µM, first compound 0.000949 µM): 106%
- viability, T/C (second compound 10 µM, first compound 0.003 µM): 114%
- viability, T/C (second compound 10 µM, first compound 0.00949 µM): 106%
- viability, T/C (second compound 10 µM, first compound 0.03 µM): 76.6%
- viability, T/C (second compound 10 µM, first compound 0.0949 µM): 34.2%
- viability, T/C (second compound 10 µM, first compound 0.3 µM): 21.9%

Structure (SMILES): CC1COCCN1c1cc(-c2ccnn2C)c2ccnc(-c3ccn[nH]3)c2n1 (stereo not drawn)
- viability, T/C (compound 0.00316 µM): 96.9% and 95.5% and 78.2%
- viability, T/C (compound 0.01 µM): 94.7% and 106% and 89.9%
- viability, T/C (compound 0.0316 µM): 126% and 103% and 38.2%
- viability, T/C (compound 0.316 µM): 8.06% and 11.5% and 3.15%
- viability, T/C (compound 1 µM): 5.02% and 8.23% and 2.74%
- IC50 (curve of compound): 80.6 nM and 81.6 nM and 23.5 nM

Structure (SMILES): Nc1ccccc1NC(=O)c1ccc(CNC(=O)OCc2cccnc2)cc1 + CC(CO)NC(=O)c1cc(-c2ccc(Cl)cc2)nn(-c2cnn(C)c2)c1=O
- IC50 [1]: 560 nM
- IC50 [2]: 486 nM
- IC50 [3]: 496 nM
- IC50 [4]: 447 nM
- IC50 [5]: 211 nM
- viability, T/C [6]: 89%
- viability, T/C [7]: 95.2%
- viability, T/C [8]: 67.4%
- viability, T/C [9]: 30.2%
- viability, T/C [10]: 10.7%
- viability, T/C [11]: 0.66%
- viability, T/C [12]: 84.3%
- viability, T/C [13]: 87.1%
- viability, T/C [14]: 57.2%
- viability, T/C [15]: 32.9%
- viability, T/C [16]: 8.17%
- viability, T/C [17]: 0.43%
- viability, T/C [18]: 93%
- viability, T/C [19]: 94.7%
- viability, T/C [20]: 61.8%
- viability, T/C [21]: 28.1%
- viability, T/C [22]: 8.39%
- viability, T/C [23]: 0.38%
- viability, T/C [24]: 83.7%
- viability, T/C [25]: 79.7%
- viability, T/C [26]: 62.2%
- viability, T/C [27]: 22.2%
- viability, T/C [28]: 7.6%
- viability, T/C [29]: 0.3%
- viability, T/C [30]: 70.3%
- viability, T/C [31]: 68.8%
- viability, T/C [32]: 39.2%
- viability, T/C [33]: 16.6%
- viability, T/C [34]: 7.12%
- viability, T/C [35]: 0.32%

Structure (SMILES): COc1cc(Nc2ncc3c(n2)-c2ccc(Cl)cc2C(c2c(F)cccc2OC)=NC3)ccc1C(=O)O + Cc1ccccc1N=Nc1ccc(NC(=O)c2ccnn2C)c(C)c1
- IC50 [1]: > 10000 nM
- IC50 [2]: > 10000 nM
- IC50 [3]: > 10000 nM
- IC50 [4]: > 10000 nM
- IC50 [5]: > 10000 nM
- viability, T/C [6]: 132%
- viability, T/C [7]: 125%
- viability, T/C [8]: 117%
- viability, T/C [9]: 107%
- viability, T/C [10]: 115%
- viability, T/C [11]: 120%
- viability, T/C [12]: 134%
- viability, T/C [13]: 119%
- viability, T/C [14]: 114%
- viability, T/C [15]: 108%
- viability, T/C [16]: 101%
- viability, T/C [17]: 117%
- viability, T/C [18]: 130%
- viability, T/C [19]: 123%
- viability, T/C [20]: 114%
- viability, T/C [21]: 107%
- viability, T/C [22]: 107%
- viability, T/C [23]: 117%
- viability, T/C [24]: 133%
- viability, T/C [25]: 118%
- viability, T/C [26]: 110%
- viability, T/C [27]: 103%
- viability, T/C [28]: 106%
- viability, T/C [29]: 114%
- viability, T/C [30]: 108%
- viability, T/C [31]: 104%
- viability, T/C [32]: 105%
- viability, T/C [33]: 96.5%
- viability, T/C [34]: 93.3%
- viability, T/C [35]: 102%

Structure (SMILES): Nc1ccn(C2OC(CO)C(O)C2(F)F)c(=O)n1 (stereo not drawn) + Cc1ccccc1N=Nc1ccc(NC(=O)c2ccnn2C)c(C)c1
- IC50 [1]: < 31.6 nM
- IC50 [2]: < 31.6 nM
- IC50 [3]: < 31.6 nM
- IC50 [4]: < 31.6 nM
- IC50 [5]: < 31.6 nM
- viability, T/C [6]: 16.6%
- viability, T/C [7]: 15.3%
- viability, T/C [8]: 14.9%
- viability, T/C [9]: 16.3%
- viability, T/C [10]: 18.7%
- viability, T/C [11]: 17.1%
- viability, T/C [12]: 14.9%
- viability, T/C [13]: 14.5%
- viability, T/C [14]: 16.5%
- viability, T/C [15]: 18%
- viability, T/C [16]: 17.4%
- viability, T/C [17]: 17.4%
- viability, T/C [18]: 16%
- viability, T/C [19]: 16%
- viability, T/C [20]: 16.4%
- viability, T/C [21]: 17%
- viability, T/C [22]: 18.3%
- viability, T/C [23]: 19.4%
- viability, T/C [24]: 14.6%
- viability, T/C [25]: 13%
- viability, T/C [26]: 15.7%
- viability, T/C [27]: 15.3%
- viability, T/C [28]: 17.1%
- viability, T/C [29]: 17.1%
- viability, T/C [30]: 16%
- viability, T/C [31]: 15.9%
- viability, T/C [32]: 16.6%
- viability, T/C [33]: 17.8%
- viability, T/C [34]: 18%
- viability, T/C [35]: 18.8%
